# Experimental data taken from paper PMC11595864, “Design, Synthesis, and Evaluation of Novel Thiazole-Containing Algicides Inspired by Bacillamide A” (Marine Drugs, 2024).
# How the values were obtained:
# S. costatum [1] = experiment: Algicidal activity assay, EC50; assay type: cell-based, Skeletonema costatum; conditions: Skeletonema costatum; Mean ± SD, n = 3; read-out: EC50 S. costatum
# Experimental: (§1) P. minimum, A. pacificum, and S. costatum were purchased from Guangyu Biological Technology Co., Ltd. (Shanghai, China). The algae strain was cultured in F/2 medium ((12 h light: 12 h dark cycle), 20 ± 1 °C, 70 μmol m^−2 s^−1). Purchased algae were transferred to sterile conical flasks for culture; after the algae proliferation was stabilized, the expanded culture was next carried out following standard conditions.
# (§2) Copper sulfate and Diuron were used as the positive controls. EC50 values were calculated according to the equation of the quantity–effect relationship in Equation (2) using the Hill model of Graph Pad Prism software (8.0.2). (2) Y=Bottom+(Top-Bottom)/1+10^(Log EC50-X)×Hill Slope
# (§3) The X and Y values represent the concentration (mg/L) and response values of the control and experimental groups, respectively. The Top, Bottom, and Hill Slope represent the maximum response, minimum response, and the curve slope, respectively. The EC50 represents half of the maximum effective concentration.
# A. pacificum [2] = experiment: Algicidal activity assay, EC50; assay type: cell-based, Alexandrium pacificum; conditions: Alexandrium pacificum; Mean ± SD, n = 3
# Experimental: as §1, §2, §3
# P. minimum [3] = experiment: Algicidal activity assay, EC50; assay type: cell-based, Prorocentrum minimum; conditions: Prorocentrum minimum; Mean ± SD, n = 3; read-out: EC50 P. minimum
# Experimental: as §1, §2, §3
# A. pacificum [4] = experiment: Growth-inhibition rate measurement at 50 mg/L, 24 h; assay type: cell-based, Alexandrium pacificum; conditions: Alexandrium pacificum, read-out: inhibition rate against A. pacificum
# Experimental: as §1
# The stock solutions of bacillamide A and different BDs were prepared in dimethyl sulfoxide (DMSO) with the requisition amount. […] The controls received the same volume of DMSO. The inhibitory activities of bacillamide A, different BDs, and positive controls were screened by 96 well microtiter plates at different concentrations. Inhibition ratios (IRs) of cupric sulfate (50 mg/L, positive control), bacillamide A (50 mg/L), and BDs (50 mg/L) were calculated on algae using Equation (1). (1) IR=Cc0-Cex/Cc0×100%
# The CC0 and Cex, respectively, represent the algal densities of the control and experimental groups.
# zebrafish = experiment: Zebrafish acute toxicity assay; assay type: in vivo; conditions: zebrafish
# Experimental: Zebrafish acute toxicity of bacillamide A and synthesized BDs were evaluated at 0.1 mg/L, 1 mg/L, and 10 mg/L, respectively. Diuron and CuSO4 were used as positive controls. The commercial zebrafish (body length > 3.0 cm) were domesticated in aerated tap water for 24 h, fed once daily for seven consecutive days, and stopped being fed before the experiment.
# 4. Acute toxicity table S1.
# Compound Concentration Survival percent Acute
# aAccording to the Guide for Environmental Safety Assessment of Chemical Pesticides
# 4 groups and treated with different compounds for 96 h.
# PSII in P. minimum = experiment: Quantum yield Fv/Fm of PSII; assay type: cell-based, Prorocentrum minimum; conditions: 10 mg/L, 72 h, versus negative control
# Experimental: (§4) P. minimum, S. costatum, and A. pacificum cells were cultured in F/2 medium. All flasks were cultivated under 12 h of light: 12 h of dark and 70 μmol m^−2 s^−1 at 20 ± 1 °C. […] Finally, the algal cells were collected and diluted in 6 mL of phosphate buffer (pH = 7.8). A small amount of quartz sand was added into the algal cells under ice bath. The obtained homogenate was next poured into a centrifuge tube and centrifuged at 5000 r/min for 25 min at 4 °C. The obtained supernatant was placed in the refrigerator at 4 °C for the next step experiment.
# (§5) Fv/Fm values were determined by using AquaPen handheld algae fluorescence meter (Nanjing Mingao Instrument Co., Ltd., Nanjing, China). The algae cells were darkened for 30 min and Fv/Fm values were measured.
# PSII in S. costatum = experiment: Quantum yield Fv/Fm of PSII; assay type: cell-based, Skeletonema costatum; conditions: 10 mg/L, 72 h, versus negative control
# Experimental: as §4, §5
# P. minimum [5] = experiment: MDA level (thiobarbituric acid assay kit); assay type: cell-based, Prorocentrum minimum; conditions: 10 mg/L, 72 h, versus control (DMSO)
# Experimental: as §4
# (§6) The malondialdehyde (MDA) assay kit was purchased from Lvyuandade Biochemical Co, Ltd., Beijing, China. The MDA parameter was monitored according to the procedure provided by the manufacturer. A total of 1 mL of algal extract was mixed with thiobarbituric acid solution (2 mL, 0.6%). The solution was sealed and kept in a boiling water bath for 15 min, followed by being cooled and centrifuged at 4500 r/min for 10 min. The absorbance values of collected supernatant were measured and calculated by the Formula (3) at 600 nm, 532 nm, and 450 nm:MDA content (nmol∙mgprot^−1) = 6.45 × (A532 − A600) − 0.56 × A450(3)
# S. costatum [6] = experiment: MDA level (thiobarbituric acid assay kit); assay type: cell-based, Skeletonema costatum; conditions: 10 mg/L, 72 h, versus control (DMSO)
# Experimental: as §4, §6
# [7] = tested on: other microalgae (e.g., diatoms, cyanobacteria, green algae); design: method as in doi:10.1016/j.tetlet.2003.08.115, PMID 17454826; conditions: cited from earlier work
# Salmonella choleraesuis = tested on: Salmonella choleraesuis; design: method as in PMID 32483303; conditions: cited from earlier work
# Vibrio cholerae = tested on: Vibrio cholerae; design: method as in PMID 32483303; conditions: cited from earlier work
# Alternaria sp. = tested on: Alternaria sp.; design: method as in PMID 32483303; conditions: cited from earlier work
structure (smiles),measurement,setting,value
CC(=O)c1nc(C(=O)NCCc2c[nH]c3ccccc23)cs1 [bacillamide A],EC50,S. costatum [1],2.51 ± 0.09 µg/mL
same,EC50,A. pacificum [2],2.17 ± 0.31 µg/mL
same,EC50,P. minimum [3],3.93 ± 0.28 µg/mL
same,inhibition at 50 µg/mL,A. pacificum [4],55.3%
same,Survival percent,"zebrafish; 0.1 mg/L, 0h",100
same,Survival percent,"zebrafish; 0.1 mg/L, 24h",100
same,Survival percent,"zebrafish; 0.1 mg/L, 48h",100
same,Survival percent,"zebrafish; 0.1 mg/L, 72h",100
same,Survival percent,"zebrafish; 0.1 mg/L, 96h",100
same,Survival percent,"zebrafish; 1 mg/L, 0h",100
same,Survival percent,"zebrafish; 1 mg/L, 24h",100
same,Survival percent,"zebrafish; 1 mg/L, 48h",87
same,Survival percent,"zebrafish; 1 mg/L, 72h",83
same,Survival percent,"zebrafish; 1 mg/L, 96h",83
same,Survival percent,"zebrafish; 10 mg/L, 0h",100
same,Survival percent,"zebrafish; 10 mg/L, 24h",100
same,Survival percent,"zebrafish; 10 mg/L, 48h",100
same,Survival percent,"zebrafish; 10 mg/L, 72h",100
same,Survival percent,"zebrafish; 10 mg/L, 96h",100
same,Acute toxicity,"zebrafish; class by GB/T31270.12, LC50 (96 h)","low (LC50 (96 h) > 10 mg/L, low toxicity)"
same,decrease of Fv/Fm of PSII in P. minimum,PSII in P. minimum,2 fold
same,decrease of quantum yield Fv/Fm of PSII in S. costatum,PSII in S. costatum,4 fold
same,increase of MDA levels in P. minimum,P. minimum [5],2.0 fold
same,increase of MDA levels in S. costatum,S. costatum [6],2.6 fold
same,algicidal activities against other microalgae,[7],did not display algicidal activities
same,antibacterial activity,Salmonella choleraesuis,moderate antibacterial activity
same,antibacterial activity,Vibrio cholerae,moderate antibacterial activity
same,antifungal activity,Alternaria sp.,slight antifungal activity
